In ChEMBL document CHEMBL3870355, “Biological Evaluation in Vitro and in Silico of Azetidin-2-one Derivatives as Potential Anticancer Agents” (ACS Med Chem Lett, 2017):
Calls of active or inactive are those of the source. The rule behind the calls is not given here.

How the values were obtained:
[1] = Cytotoxicity against human SiHa cells by MTT assay; type: functional, cell-based
[2] = Cytotoxicity against mouse B16F10 cells by MTT assay; type: functional, cell-based; conditions: B16-F10
[3] = Cytotoxicity against human Chang cells by MTT assay; type: toxicity, cell-based
B16-F10 [4] = experiment: Induction of apoptosis in mouse B16F10 cells assessed as caspase-3 activation using Ac-DEVD-pNA as substrate by spectrophotometric analysis; type: functional
B16-F10 [5] = experiment: Induction of apoptosis in mouse B16F10 cells assessed as formation of organized shedding vesicles by microscopic analysis; type: functional, cell-based
B16-F10 [6] = experiment: Effect on tubulin gene expression in mouse B16F10 cells by GenArise analysis; type: functional, cell-based
B16-F10 [7] = experiment: Induction of changes in cell death related gene expression in mouse B16F10 cells by GenArise analysis; type: functional, cell-based
B16-F10 [8] = experiment: Induction of changes in cytoskeleton and cell division processes related gene expression in mouse B16F10 cells by GenArise analysis; type: functional, cell-based

Row | SMILES | IC50 [1] | IC50 [2] | IC50 [3] | Activity (B16-F10 [4]) | Activity (B16-F10 [5]) | Activity (B16-F10 [6]) | Activity (B16-F10 [7]) | Activity (B16-F10 [8])
1 | COc1ccc(N2C(=O)[C@@H](Oc3ccccc3)[C@H]2c2ccccc2[N+](=O)[O-])cc1 | 220 nM | 4820 nM | 3730 nM | – | – | – | – | –
2 | O=C1C(Oc2ccccc2)C(c2ccncc2)N1c1nc2ccccc2s1 (racemic) | 1340 nM | 1700 nM | 1030 nM | – | – | – | – | –
3 | O=C1C(Oc2ccccc2)C(c2ccco2)N1c1nc2ccccc2s1 (racemic) | 330 nM | 340 nM | 17 nM | 93% | – | – | – | –
4 | O=C1C(Oc2ccccc2)C(c2ccc(Cl)cc2)N1c1nc2ccccc2s1 (racemic) | 90 nM | 310 nM | 230 nM | – | – | – | – | –
5 | O=C1C(Oc2ccccc2)C(c2ccc([N+](=O)[O-])cc2)N1c1nc2ccccc2s1 (racemic) | 120 nM | 450 nM | 70 nM | – | – | – | – | –
6 | COc1ccc(N2C(=O)[C@@H](Oc3ccccc3)[C@H]2c2ccc(C)cc2)cc1 (relative stereo) | 70 nM | 1210 nM | > 10000 nM | 100% | Active | Active | Active | Active
7 | COc1ccc(N2C(=O)[C@@H](OC)[C@H]2c2ccc([N+](=O)[O-])cc2)cc1 (relative stereo) | 8130 nM | 2080 nM | > 10000 nM | 88% | – | – | – | –
8 | COc1ccc(N2C(=O)[C@@H](OC)[C@H]2c2ccccc2[N+](=O)[O-])cc1 (relative stereo) | 7290 nM | 2910 nM | 9750 nM | – | – | – | – | –
9 | COc1ccc(N2C(=O)[C@@H](OC)[C@H]2c2ccc(C)cc2)cc1 (relative stereo) | 730 nM | 4120 nM | 3920 nM | – | – | – | – | –
10 | COc1ccc([C@@H]2[C@H](OC)C(=O)N2c2ccc(OC)cc2)cc1 (relative stereo) | 6360 nM | 2050 nM | 8380 nM | – | – | – | – | –
11 | COc1ccc([C@@H]2[C@H](Oc3ccccc3)C(=O)N2c2ccc(OC)cc2)cc1 (relative stereo) | 420 nM | 9700 nM | 630 nM | – | – | – | – | –
12 | COc1ccc(N2C(=O)[C@@H](OC)[C@H]2c2ccc(Cl)cc2)cc1 (relative stereo) | 8610 nM | > 10000 nM | 3410 nM | – | – | – | – | –
13 | COc1ccc(N2C(=O)[C@@H](Oc3ccccc3)[C@H]2c2ccc([N+](=O)[O-])cc2)cc1 (relative stereo) | 3640 nM | 870 nM | 2080 nM | – | – | – | – | –
14 | COc1ccc(N2C(=O)[C@@H](OC)[C@H]2c2ccc(F)cc2)cc1 (relative stereo) | 2890 nM | 2820 nM | 7570 nM | – | – | – | – | –
15 | COc1ccc(N2C(=O)[C@@H](Oc3ccccc3)[C@H]2c2ccc(F)cc2)cc1 (relative stereo) | 80 nM | 3260 nM | 740 nM | – | – | – | – | –
16 | COc1ccc(N2C(=O)[C@@H](Oc3ccccc3)[C@H]2c2ccccc2)cc1 (relative stereo) | 200 nM | 280 nM | 2850 nM | – | – | – | – | –
17 | COc1cc([C@@H]2c3cc4c(cc3[C@H](O)[C@H]3COC(=O)[C@H]23)OCO4)cc(OC)c1OC [PODOFILOX] | – | – | – | 100% | Active | – | – | –
18 | CC[C@]1(O)C[C@H]2CN(CCc3c([nH]c4ccccc34)[C@@](C(=O)OC)(c3cc4c(cc3OC)N(C=O)[C@H]3[C@@](O)(C(=O)OC)[C@H](OC(C)=O)[C@]5(CC)C=CCN6CC[C@]43[C@@H]65)C2)C1 [VINCRISTINE] | 10 nM | 10 nM | 10 nM | – | – | – | – | –
